Where two headings read alike, the source gives them in different places.
Tests used:
SARS-CoV-2-NLuc = assay: microbe, parasite or virus in culture; type: cell-based, SARS Coronavirus 2
[1] = target: recombinant SARS-CoV-2 Main protease (Mpro) (Severe acute respiratory syndrome coronavirus 2 (2019-nCoV) (SARS-CoV-2), UniProt P0DTD1); assay: Cov Mpro Biochemical IC50 Assay; conditions: read-out: MPro IC50
[2] = Severe acute respiratory syndrome coronavirus, 48 h, read-out: MPro EC50
[3] = recombinant SARS-CoV-2 Mpro 7.5 nM, fluorogenic peptide substrate 40 μM
[4] = recombinant SARS-CoV-2 Mpro, fluorogenic peptide substrate
[5] = Severe acute respiratory syndrome coronavirus, 48 h; read-out: MPro EC50

SMILES | EC50 (SARS-CoV-2-NLuc; [2]) | IC50 [1, 3] | EC50 (SARS-CoV-2-NLuc; read-out: MPro EC50) | IC50 [1, 4] | EC50 (SARS-CoV-2-NLuc; [5])
COc1cc(-c2cc3c(s2)c(=O)n(-c2cncc4nnn(C)c24)c(=O)n3CCC#N)c(Cl)cc1F [Example 936, 3-(6-(2-chloro-4-fluoro-5-methoxyphenyl)-3-(1-methyl-1H-[1,2,3]triazolo[4,5-c]pyridin-7-yl)-2,4-dioxo-3,4-dihydrothieno[3,2-d]pyrimidin-1(2H)-yl)propanenitrile] | 6.65 nM | 5.46 nM | – | – | –
COc1cc(-c2cc3c(s2)c(=O)n(-c2cncc4[nH]nc(C)c24)c(=O)n3CCC#N)c(Cl)cc1F (single isomer, unassigned) [Example 960, 3-(6-(2-chloro-4-fluoro-5-methoxyphenyl)-3-(3-methyl-1H-pyrazolo[3,4-c]pyridin-4-yl)-2,4-dioxo-3,4-dihydrothieno[3,2-d]pyrimidin-1(2H)-yl)propanenitrile] | – | 79.6 nM | 163 nM | – | –
COCCn1cc2cncc(-n3c(=O)c4sc(-c5cc(OC)c(F)cc5Cl)cc4n(CCC#N)c3=O)c2n1 [Example 914] | 10.9 nM | 4.76 nM | – | – | –
COc1cc(-c2cc3[nH]c(=O)n(-c4cc(C)cnn4)c(=O)c3s2)c(Cl)cc1F [Example 746] | 54.3 nM | 4.17 nM | – | – | –
CC1(N2CCN(c3ccc4cncc(-n5c(=O)[nH]c6cc(-c7ccccc7Cl)sc6c5=O)c4c3)CC2)COC1 [Example 391] | 10.2 nM | – | – | 6.25 nM | –
COc1cc(-c2cc3[nH]c(=O)n(-c4cncc5ccccc45)c(=O)c3s2)c(C)cc1C [Example 717] | 25.3 nM | 23.8 nM | – | – | –
COc1cc(-c2cc3c(s2)c(=O)n(-c2cncc4ccccc24)c(=O)n3CC#N)c(Cl)cc1F (single isomer, unassigned) [Example 634, 2-[6-(2-chloro-4-fluoro-5-methoxy-phenyl)-3-(4-isoquinolyl)-2,4-dioxo-thieno[3,2-d]pyrimidin-1-yl]acetonitrile] | – | 29 nM | 31.2 nM | – | –
COc1cnc(Cl)c(-c2cc3[nH]c(=O)n(-c4cncc(C5CC5)c4)c(=O)c3s2)c1 [Example 369] | – | – | – | 9.23 nM | 110 nM
O=c1[nH]c2cc(-c3cc(C(F)(F)F)ccc3Cl)ccc2c(=O)n1-c1cncc2ccccc12 [Example 180] | 1960 nM | – | – | 3740 nM | –
COc1cc(-c2cc3[nH]c(=O)n(-c4cncc5ccccc45)c(=O)c3cc2OC)c(Cl)cc1F (single isomer, unassigned) [Example 1055, 7-(2-chloro-4-fluoro-5-methoxyphenyl)-3-(isoquinolin-4-yl)-6-methoxyquinazoline-2,4(1H,3H)-dione] | – | 459 nM | 460 nM | – | –
Cn1ncc2cncc(-n3c(=O)c4sc(-c5ccc(C(F)(F)F)cc5C#N)cc4n(CCC#N)c3=O)c21 [Example 775] | > 1000 nM | 600 nM | – | – | –
O=c1[nH]c2cc(-c3ccccc3Cl)c(F)cc2c(=O)n1-c1cncc2ccccc12 [Example 37] | 170 nM | – | – | 248 nM | –
O=c1[nH]c2cc(-c3ccccc3Cl)sc2c(=O)n1-c1cncc2ccc(N3CCC(F)(F)C3)cc12 [Example 413] | 66.8 nM | 5.46 nM | – | – | –
COc1cc(-c2cc3[nH]c(=O)n(-c4cncc5ccccc45)c(=O)c3s2)c(Cl)cn1 [Example 365] | 343 nM | – | – | 100 nM | –
COc1ccc(Cl)c(-c2cc3[nH]c(=O)n(-c4cncc5ccc(O)cc45)c(=O)c3s2)c1 [Example 581] | 151 nM | < 2.54 nM | – | – | –
COc1cc(-c2cc3c(s2)c(=O)n(-c2cncc4cnn(C)c24)c(=O)n3CC2(C#N)CC2)c(Cl)cc1F [Example 643, 1-[[6-(2-chloro-4-fluoro-5-methoxy-phenyl)-3-(1-methylpyrazolo[4,3-c]pyridin-7-yl)-2,4-dioxo-thieno[3,2-d]pyrimidin-1-yl]methyl]cyclopropanecarbonitrile] | – | < 4.05 nM | – | – | 1.14 nM
Cn1ncc2cncc(-n3c(=O)c4sc(-c5ccc(C#N)cc5Cl)cc4n(CCC#N)c3=O)c21 [Example 1025] | 244 nM | 86.4 nM | – | – | –
COc1cc(-c2cc3c(s2)c(=O)n(-c2cncc4nc(C)n(C)c24)c(=O)n3CC2(C#N)CC2)c(Cl)cc1F [Example 707] | 8.9 nM | 2.13 nM | – | – | –
COc1cc(-c2cc3c(s2)c(=O)n(-c2cncc4cnn(C)c24)c(=O)n3CC(F)F)c(Cl)cc1F [Example 1065, 6-(2-chloro-4-fluoro-5-methoxy-phenyl)-1-(2,2-difluoroethyl)-3-(1-methylpyrazolo[4,3-c]pyridin-7-yl)thieno[3,2-d]pyrimidine-2,4-dione] | – | 7.01 nM | – | – | 13.6 nM
Cc1nnc2n1CCN(c1ccc3cncc(-n4c(=O)[nH]c5cc(-c6ccccc6Cl)sc5c4=O)c3c1)C2 [Example 396] | 3010 nM | 14.9 nM | – | – | –
COc1cc(-c2cc3[nH]c(=O)n(-c4cncc5c4c(C)nn5CC(F)(F)F)c(=O)c3s2)c(Cl)cc1F [Example 741] | > 1000 nM | > 1000 nM | – | – | –
COc1cc(-c2cc3[nH]c(=O)n(-c4cncc5c4CCCC5)c(=O)c3s2)c(Cl)cc1F [Example 729] | – | 6.1 nM | – | – | 7.78 nM

SMILES | EC50 (SARS-CoV-2-NLuc; [2]) | IC50 [1, 3] | EC50 (SARS-CoV-2-NLuc; read-out: MPro EC50) | IC50 [1, 4] | EC50 (SARS-CoV-2-NLuc; [5])
COc1cc(F)c(Cl)c(-c2ccc3c(=O)n(-c4cncc5ccccc45)c(=O)[nH]c3c2)c1 [Example 212] | 752 nM | – | – | 831 nM | –
Cc1c(Cl)cncc1-n1c(=O)c2sc(-c3ccccc3Cl)cc2n(CCC#N)c1=O [Example 834] | – | 19.5 nM | – | – | 34.2 nM
Cn1ncc2cncc(-n3c(=O)c4sc(-c5cc(F)c(F)cc5Cl)cc4n(CCC#N)c3=O)c21 (single isomer, unassigned) [Example 1077, 3-[6-(2-chloro-4,5-difluoro-phenyl)-3-(1-methylpyrazolo[4,3-c]pyridin-7-yl)-2,4-dioxo-thieno[3,2-d]pyrimidin-1-yl]propanenitrile] | – | 485 nM | > 1000 nM | – | –
COc1cc(-c2cc3[nH]c(=O)n(-c4nncc5ccccc45)c(=O)c3s2)c(Cl)cc1F [Example 744] | – | 21.7 nM | – | – | 85 nM
Cc1c(-c2ccccc2Cl)sc2c(=O)n(-c3cncc4ccccc34)c(=O)[nH]c12 [Example 76] | 7400 nM | – | – | 2780 nM | –
COc1cc(-c2cc3c(s2)c(=O)n(-c2cncc(C#CC(C)(C)O)c2)c(=O)n3CCC#N)c(Cl)cc1F [Example 1038, 3-(6-(2-chloro-4-fluoro-5-methoxyphenyl)-3-(5-(3-hydroxy-3-methylbut-1-yn-1-yl)pyridin-3-yl)-2,4-dioxo-3,4-dihydrothieno[3,2-d]pyrimidin-1(2H)-yl)propanenitrile] | – | 1.28 nM | – | – | 5.69 nM
Cc1cc(-c2cccc(Cl)c2-c2cc3[nH]c(=O)n(-c4cncc5ccccc45)c(=O)c3s2)cn2ncnc12 [Example 113] | < 7.31 nM | – | – | 7.31 nM | –
COc1ccc(Cl)c(-c2cc3[nH]c(=O)n(-c4cncc5c4cnn5CC(F)(F)F)c(=O)c3s2)c1 [Example 499] | 6950 nM | 1920 nM | – | – | –
COc1ccc2cncc(-n3c(=O)[nH]c4cc(-c5ccccc5Cl)sc4c3=O)c2c1 [Example 175, 6-(2-chlorophenyl)-3-(6-methoxyisoquinolin-4-yl)thieno[3,2-d]pyrimidine-2,4(1H,3H)-dione] | 26.6 nM | – | – | 4.68 nM | –
N#CCCn1c(=O)n(-c2cccnc2)c(=O)c2sc(-c3ccccc3Cl)cc21 [Example 804] | – | 14 nM | – | – | 45 nM
COc1cc(-c2cc3c(s2)c(=O)n(-c2cncc4nc(C)n(C)c24)c(=O)n3CCC#N)c(Cl)cc1F (single isomer, unassigned) [Example 970, 3-(6-(2-chloro-4-fluoro-5-methoxyphenyl)-3-(1,2-dimethyl-1H-imidazo[4,5-c]pyridin-7-yl)-2,4-dioxo-3,4-dihydrothieno[3,2-d]pyrimidin-1(2H)-yl)propanenitrile] | – | 3.96 nM | 18.9 nM | – | –
O=c1[nH]c2cc(-c3cc(Cl)c(F)cc3Cl)sc2c(=O)n1-c1cncc2ccccc12 [Example 726] | 39 nM | 22.8 nM | – | – | –
COc1cc(-c2cc3[nH]c(=O)n(-c4cncc5cnn(C)c45)c(=O)c3s2)c(Cl)cc1Cl [Example 667] | 18.7 nM | 14 nM | – | – | –
O=c1[nH]c2cc(-c3ccccc3C(F)(F)F)ccc2c(=O)n1-c1cncc2ccccc12 [Example 24, 3-(isoquinolin-4-yl)-7-(2-(trifluoromethyl)phenyl)quinazoline-2,4(1H,3H)-dione] | – | – | – | 2730 nM | 2500 nM
O=c1[nH]c2cc(-c3ccccc3Cl)sc2c(=O)n1-c1cncc2cc(Cl)ccc12 [Example 590] | 299 nM | 194 nM | – | – | –
COc1cc(-c2cc(OC)c3c(=O)n(-c4cncc5ccccc45)c(=O)[nH]c3c2)c(C#N)cc1F [Example 680] | – | 21.7 nM | 20.8 nM | – | –
CC(C)(O)[C@H](F)CNc1ccc2cncc(-n3c(=O)[nH]c4cc(-c5ccccc5Cl)sc4c3=O)c2c1 [Example 386] | 56.2 nM | – | – | 3.96 nM | –
O=c1[nH]c2cc(-c3ccccc3Cl)c(OC3CC3)cc2c(=O)n1-c1cncc2ccccc12 [Example 80] | 232 nM | – | – | 768 nM | –
Cn1nnc2cncc(-n3c(=O)c4sc(-c5cc(F)c(F)cc5Cl)cc4n(CCC#N)c3=O)c21 [Example 796] | – | 40.5 nM | – | – | 124 nM
COc1cc(-c2cc3c(s2)c(=O)n(-c2cncc4nnn(C)c24)c(=O)n3CC2(C#N)CC2)c(Cl)cc1F [Example 688] | 14.5 nM | 9.78 nM | – | – | –
COc1cccc(C#N)c1-c1cc2c(s1)c(=O)n(-c1cncc3cnn(C)c13)c(=O)n2CCC#N [Example 838, 2-(1-(2-cyanoethyl)-3-(1-methyl-1H-pyrazolo[4,3-c]pyridin-7-yl)-2,4-dioxo-1,2,3,4-tetrahydrothieno[3,2-d]pyrimidin-6-yl)-3-methoxybenzonitrile] | 115 nM | 32.5 nM | – | – | –
COc1cc(-c2cc3c(s2)c(=O)n(-c2cncc4c2c(C)nn4CC(F)(F)F)c(=O)n3CCC#N)c(Cl)cc1F [Example 919] | 366 nM | 926 nM | – | – | –

From patent US20240116946A1 (Gilead Sciences, Inc., priority 2022, published 2024)
